This note sets out measurements from patent publication US8637525B2, “Compounds for the reduction of beta-amyloid production” (Bristol-Myers Squibb Company, priority 2009, dated 2014).

The structures appear in SMILES notation. Where two headings read alike, the source gives them in different places.

For this assay, the system named is Aβ1-42 production. Kind of assay: Cellular assay for inhibition of Aβ1-42 production (H4 APP751 SWE clone 8.20). The format is cell-based. To be noted: H4 APP751 SWE clone 8.20 cells, 19 h incubation. An outline of the steps:
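Cells incubate with compound for 19 h (37 °C, 5% CO2), the plate is briefly spun, and antibody mix is added straight to the wells: Wallac-conjugated 565 against the Aβ42 C-terminal neoepitope and APC-conjugated 26D6 against the Aβ N-terminus. After overnight sealing at 4 °C, signal is counted and IC50 fitted.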

Setting [1] is: 19 h, class symbols, read-out: Activity Rating (Aβ42 cellular IC50).
Where [2] appears, read: class symbols, read-out: Activity Rating (Aβ42 cellular IC50).

As usually defined, the IC50 is the concentration that inhibits the measured activity by half. For the compound `CNc1nc(Nc2ccc(-n3cnc(Cl)c3)c(OC)c2)nc2c1COC2c1ccc(F)cc1` (single isomer, unassigned) [Example 79B, N^2-(4-(4-chloro-1H-imidazol-1-yl)-3-methoxyphenyl)-7-(4-fluorophenyl)-N^4-methyl-5,7-dihydrofuro[3,4-d]pyrimidine-2,4-diamine], the concentration for half-maximal inhibition (IC50) under setting [1] was 10 to 100 nM. The same measure, in the same setting: in the case of `CNc1nc(Nc2ccc(C3(C#N)CCCC3)cc2)nc2c1CCC2c1ccccc1` (centres unmarked) [Example 244, 1-(4-(4-(methylamino)-7-phenyl-6,7-dihydro-5H-cyclopenta[d]pyrimidin-2-ylamino)phenyl)cyclopentanecarbonitrile] it was more than 1000 nM. `COc1cc(Nc2nc3c(c(N4CC(C)(OC)C4)n2)CCC3c2ccc(F)cc2)ccc1-n1cnc(C)n1` (centres unmarked) [Example 192A, 7-(4-fluorophenyl)-4-(3-methoxy-3-methylazetidin-1-yl)-N-(3-methoxy-4-(3-methyl-1H-1,2,4-triazol-1-yl)phenyl)-6,7-dihydro-5H-cyclopenta[d]pyrimidin-2-amine]: the concentration for half-maximal inhibition (IC50) (read-out: Activity Rating (Aβ42 cellular IC50), numeric value) was 170 nM. On to `CCC1CCCN1c1nc(Nc2ccc(-n3cnc(Cl)c3)c(OC)c2)nc2c1CCC2c1ccc(F)cc1` (single isomer, unassigned) [Example 23B, N-(4-(4-chloro-1H-imidazol-1-yl)-3-methoxyphenyl)-4-(2-ethylpyrrolidin-1-yl)-7-(4-fluorophenyl)-6,7-dihydro-5H-cyclopenta[d]pyrimidin-2-amine], for which the IC50 under setting [2] lay in the range of 100 to 1000 nM.

Turning to `CCNc1nc(Nc2ccc(-n3cnc(Cl)c3)c(OC)c2)nc2c1CN(C)CC2c1ccccc1` (centres unmarked) [Example 151, N2-(4-(4-chloro-1H-imidazol-1-yl)-3-methoxyphenyl)-N4-ethyl-6-methyl-8-phenyl-5,6,7,8-tetrahydropyrido[4,3-d]pyrimidine-2,4-diamine], the IC50 under setting [1] lay in the range of 1.5 to 9.9 nM.

Regarding `COc1cc(Nc2nc3c(c(N(C)C)n2)CCCC3c2ccc(F)cc2)ccc1-n1cnc(Cl)c1` (racemic) [Example 127, N^2-(4-(4-Chloro-1H-imidazol-1-yl)-3-methoxyphenyl)-8-(4-fluorophenyl)-N^4,N^4-dimethyl-5,6,7,8-tetrahydroquinazoline-2,4-diamine], under setting [1], the IC50 fell in the range of 10 to 100 nM. `COc1cc(Nc2nc3c(c(N(C)C)n2)COCC3c2ccc(F)cc2)ccc1-n1cnc(Cl)c1` (racemic) [Example 61, N2-(4-(4-chloro-1H-imidazol-1-yl)-3-methoxyphenyl)-8-(4-fluorophenyl)-N4,N4-dimethyl-7,8-dihydro-5H-pyrano[4,3-d]pyrimidine-2,4-diamine]: the IC50 under setting [1] was in the range of 10 to 100 nM. `CNc1nc(Nc2ccc(-n3ncnc3C)c(F)c2)nc2c1CCOC2c1ccccc1` (centres unmarked) [Example 87, N2-(3-fluoro-4-(5-methyl-1H-1,2,4-triazol-1-yl)phenyl)-N4-methyl-8-phenyl-6,8-dihydro-5H-pyrano[3,4-d]pyrimidine-2,4-diamine]: the IC50 (19 h, read-out: Activity Rating (Aβ42 cellular IC50), numeric value) was determined as 60 nM. As to `CCNc1nc(Nc2ccc(-n3cnc(Cl)c3)c(OC)c2)nc2c1COCC2c1ccc(F)cc1` (racemic) [Example 56, N2-(4-(4-chloro-1H-imidazol-1-yl)-3-methoxyphenyl)-N4-ethyl-8-(4-fluorophenyl)-7,8-dihydro-5H-pyrano[4,3-d]pyrimidine-2,4-diamine], the IC50 under setting [1] fell in the range of 10 to 100 nM. `COc1cc(Nc2nc3c(c(N4CCCC4C)n2)CCC3c2ccc(F)cc2)ccc1-n1cnc(Cl)c1` (single isomer, unassigned) [Example 19, N-(4-(4-chloro-1H-imidazol-1-yl)-3-methoxyphenyl)-7-(4-fluorophenyl)-4-(2-methylpyrrolidin-1-yl)-6,7-dihydro-5H-cyclopenta[d]pyrimidin-2-amine]: under setting [2], the IC50 lay in the range of 10 to 100 nM. Take `CNc1nc(Nc2ccc(-n3cnc(Cl)c3)c(OC)c2)nc2c1CN(S(=O)(=O)C1CC1)CC2c1ccccc1` (centres unmarked) [Example 130, N2-(4-(4-chloro-1H-imidazol-1-yl)-3-methoxyphenyl)-6-(cyclopropylsulfonyl)-N4-methyl-8-phenyl-5,6,7,8-tetrahydropyrido[4,3-d]pyrimidine-2,4-diamine]: the IC50 under setting [1] was in the range of 1.5 to 9.9 nM.
